For data set [1], the target named is T1, Human recombinant cathepsin K (Homo sapiens, UniProt P43235).
T1 construct: purchased B. Turk, Josef, Stefan Institute, Ljubljana, Slovenia
T1 sequence (P43235 115-329): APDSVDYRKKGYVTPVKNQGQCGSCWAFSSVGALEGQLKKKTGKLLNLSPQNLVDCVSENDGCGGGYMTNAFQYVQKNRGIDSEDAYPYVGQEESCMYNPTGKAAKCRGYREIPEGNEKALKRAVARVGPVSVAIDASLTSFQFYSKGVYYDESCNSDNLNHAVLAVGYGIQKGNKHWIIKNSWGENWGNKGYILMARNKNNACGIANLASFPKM
The data set is described as follows: In vitro cathepsin Ki inhibition measurements. The format is biochemical. The following applies: read-out: In vitro Ki (nM) vs Cath K. The method, then:
Stock solutions of substrate or inhibitor were made up to 10 mM in 100% dimethylsulfoxide (DMSO) (Rathburns, Glasgow, U.K.) and diluted as appropriately required. In all cases the DMSO concentration in the assays was maintained at less than 1% (vol./vol.). The equilibrium inhibition constants (Ki^ss) for each compound were measured under steady-state conditions monitoring enzyme activity as a function of inhibitor concentration. The values were calculated on the assumption of pure competitive behaviour (Cornish-Bowden, A. Fundamentals of enzyme kinetics Portland Press; 1995, 93-128.). Human recombinant cathepsin K (0.25 nM final; B. Turk, Josef, Stefan Institute, Ljubljana, Slovenia), was routinely assayed in 100 mM sodium acetate; pH 5.5 containing 1 mM EDTA, 10 mM L-cysteine and 1.8 μM Z-Leu-Arg-AMC ([S]=KM).
The apparent inhibition constant (Ki) for each compound was determined on the basis that inhibition was reversible and occurred by a pure-competitive mechanism. The Ki values were calculated, from the dependence of enzyme activity as a function of inhibitor concentration, by direct regression analysis (Prism v 3.02) using Equation 2 (Cornish-Bowden, A., 1995).
In situations where the apparent dissociation constant (Ki^app) approached the enzyme concentrations, the Ki^app values were calculated using a quadratic solution in the form described by Equation 3 (Morrison, J. F. Trends Biochem. Sci., 7, 102-105, 1982; Morrison, J. F. Biochim. Biophys. Acta, 185, 269-286, 1969; Stone, S. R. and Hofsteenge, J. Biochemistry, 25, 4622-4628, 1986).
In Equation 3 ‘vi’ is the observed residual activity, ‘F’ is the difference between the maximum activity (i.e. in the absence of inhibitor) and minimum enzyme activity, ‘Eo’ is the total enzyme concentration, ‘Ki^app’ is the apparent dissociation constant and ‘Io’ is the inhibitor concentration. Curves were fitted by non-linear regression analysis (Prism) using a fixed value for the enzyme concentration. Equation 4 was used to account for the substrate kinetics, where ‘Ki’ is the inhibition constant, ‘[So]’ is the initial substrate concentration and ‘KM^app’ is the apparent macroscopic binding (Michaelis) constant for the substrate (Morrison, 1982).

Data set [2] concerns human osteoclasts. The data set can be described thus: Human osteoclast resorption assay. The following applies: human osteoclast activity, read-out: Cell-based % Inh. @ 1 μM Human. Here is the method: Bone resorption was studied using a model where human osteoclast precursor cells were cultured on bovine bone slices for 9 days and allowed to differentiate into bone-resorbing osteoclasts. The formed mature osteoclasts were then allowed to resorb bone. The assay was performed by Pharmatest Services Ltd, ItAinen Pitkakatu 4C, Turku, Finland. After the culture period, bone collagen degradation products were quantified from the culture medium as an index of bone resorption. Inhibitor compounds were added into the cell cultures after the differentiation period and their effects on the resorbing activity of mature osteoclasts were determined. The studies included a baseline group without added compounds and a positive control group where a potent cathepsin K inhibitor E-64 was added.
Human peripheral blood monocytes were suspended to culture medium and allowed to attach to bovine bone slices. The bone slices were transferred into 96-well tissue culture plates containing culture medium with appropriate amounts of important growth factors favouring osteoclast differentiation, including M-CSF, RANK-ligand and TGF-β. The cells were incubated in a CO2 incubator in humidified atmosphere of 95% air and 5% carbon dioxide at 37° C. At day 7 when osteoclast differentiation was complete, the culture medium was replaced with culture medium containing conditions favouring osteoclast activity. The cell culture was continued for an additional 2 days, during which the formed mature osteoclasts were allowed to resorb bone in the presence of vehicle, control inhibitor (E64) or test compounds. At the end of the culture, bone collagen degradation products released into the culture medium were determined using a commercially available ELISA method (CrossLaps® for culture, Nordic Bioscience, Herlev, Denmark) as an index of bone resorption (see Bagger, Y. Z., et al, J. Bone. Miner. Res. 14 (suppl. 1), S370).

Another data set has as its system rat osteoclasts. The data set can be described thus: Rat osteoclast resorption assay. The following applies: read-out: Cell-based % Inh. @ 1 μM Rat. Here is the method: Bone resorption was studied using a model where mature osteoclasts derived from rat bone were cultured on bovine bone slices for 3 days and allowed to resorb bone in the presence of inhibitor, positive control (E-64) or vehicle. More specifically, tibia, femori and humeri were removed from 1 day old rat pups. The endosteal surfaces of the bones were scraped with a scapelto release osteoclasts into the culture medium and the osteoclasts were allowed to attach to bovine bone slices. After the culture period, bone collagen degradation products were quantified from the culture medium as an index of bone resorption. The assay was performed by Pharmatest Services Ltd, Itilinen Pitkakatu 4C, Turku, Finland.

Data set [3] can be described thus: Plasma incubations (human plasma stability). The format is in vitro ADME. The following applies: 37° C. Here is the method:
Human and rat plasma were purchased from Innovative Research Inc. (Southfield. MI, USA). Compounds were taken from 5 mM DMSO stock solutions and added to plasma, which had previously been incubated at 37° C., to give a final concentration of 25 μM and re-incubated. Aliquots were removed at 2 and 60 minutes and quenched with an equal volume of cold acetonitrile. After mixing vigorously, the precipitated protein matter was removed by filtration (Multiscreen Solvinert filter plates, Millipore, Bedford, Mass., USA) and the filtrate analysed by reverse phase HPLC with mass spectrometric detection, using single ion monitoring of the [M+H]^+ species. Metabolic turnover was determined by comparison of peak areas from the ion chromatograms of the parent compound at 2 and 60 minutes and expressed as percent remaining at 1 hour: […]

Data set [4] is described as follows: Liver microsomal incubations (HLM stability). The format is in vitro ADME. The following applies: human liver microsomes. Here is the method:
Human and rat liver microsomes were purchased from BD Gentest (Woburn, Mass., USA) and β-nicotinamide adenine dinucleotide 2′-phosphate reduced tetrasodium salt (NADPH) was purchased from Sigma-Aldrich (Poole, Dorset, UK). All liver microsome incubations were carried out in 50 mM potassium phosphate buffer at pH 7.4, with a final microsomal protein concentration of 0.5 mg/mL. Compounds were taken from 5 mM DMSO stock solutions and diluted in incubation buffer to give a final concentration of […] with a final DMSO concentration of 0.5% v/v. In brief, compounds were added to the incubation buffer along with the liver microsomes and incubated at 37° C. for 10 minutes. The reaction was then initiated by the addition of NADPH, previously dissolved in incubation buffer, to give a final concentration of 1 mM and re-incubated at 37° C. Aliquots were removed at 2 and 60 minutes and quenched with an equal volume of cold acetonitrile. After mixing vigorously, the precipitated protein matter was removed by filtration (Multiscreen Solvinert filter plates, Millipore, Bedford, Mass., USA) and the filtrate analysed by reverse phase HPLC with mass spectrometric detection, using single ion monitoring of the [M+H]^+ species. Metabolic turnover was determined by comparison of peak areas from the ion chromatograms of the parent compound at 2 and 60 minutes and expressed as percent remaining at 1 hour.

Data set [5] is described as follows: LogD determinations (shake-flask, octanol/PBS). The format is physicochemical. The following applies: 1-octanol/phosphate buffered saline; pH 7.4; ion-count method. The method, then:
LogD(PBS) determinations were performed in 96 well microtitre plates using a miniaturised “shake-flask” method. In brief, compounds were taken from 10 mM DMSO stock solutions and added to wells containing equal volumes of phosphate buffered saline (10 mM; pH 7.4) (PBS) and 1-octanol (Sigma-Aldrich, Poole, Dorset, UK) to give a final concentration of 50 μM. The plates were then capped and mixed vigorously for 1 hour on a microtitre plate shaker, after which they were left to stand, allowing the PBS and octanol phases to separate. The PBS layer was analysed by reverse phase HPLC with mass spectrometric detection, using single ion monitoring of the [M+H]^+ species. LogD(PBS) was determined by comparison of the peak area from the ion chromatogram of the compound in the PBS phase with that of a 50 μM standard of the same compound dissolved in acetonitrile/water (50:50) and calculated using the following formula: […]
Where AUCstd and AUCpbs are the peak areas from the standard and test ion chromatograms respectively.

Data set [6] concerns human osteoclasts. The following applies: human osteoclast, literature value; cited from earlier work.

Molecules are shown by their SMILES.

On to `CCC(C)[C@H](NC(=O)c1ccc(N2CCN(C)CC2)cc1)C(=O)N1CC[C@H]2OCC(=O)[C@H]21` (stereo in doubt) [Example 9, N-((2S,3S)-3-methyl-1-oxo-1-((3aS,6aR)-3-oxodihydro-2H-furo [3,2-b]pyrrol-4(5H,6H,6aH)-yl)pentan-2-yl)-4-(4-methylpiperazin-1-yl)benzamide], for which the Ki (as a rule, the equilibrium dissociation constant of an inhibitor or competing ligand from its target) in data set [1] was determined as 5 nM. The inhibition at 1 µM came to 77% in the data set with human osteoclasts [2] and 10% in the data set on rat osteoclasts. Further, in data set [3], the “Human Plasma Stability % rem. @ 1 hr” value is on record as 91%. Also, the “HLM % rem. @ 1 hr” value in data set [4] was found to be 94%. In addition, the logD – broadly, the decadic logarithm of the distribution of all forms, ionised or not, between an organic phase and buffer at a given pH – in data set [5] stood at 1.15.
For the molecule `CC(C)C[C@H](NC(=O)c1ccc(N2CCN(C)CC2)cc1)C(=O)N1CC[C@H]2OCC(=O)[C@H]21` [Example 1, reference compound], the inhibition at 1 µM in the data set on human osteoclasts [2] was found to be 55%; with rat osteoclasts, 43%. Also, the “Human Plasma Stability % rem. @ 1 hr” value in data set [3] is recorded as 95%. Moreover, the “HLM % rem. @ 1 hr” value in data set [4] amounted to 95%.
For `CCN1CCN(c2ccc(C(=O)N[C@@H](CC(C)C)C(=O)N3CC[C@H]4OCC(=O)[C@H]43)cc2)CC1` [Example 2, 4-(4-ethylpiperazin-1-yl)-N—((S)-4-methyl-1-oxo-1-((3aS,6aR)-3-oxodihydro-2H-furo[3,2-b]pyrrol-4(5H,6H,6aH)-yl)pentan-2-yl)benzamide, reference compound], the inhibition at 1 µM with human osteoclasts [2] is 58%; with rat osteoclasts, 40%. In data set [3], the “Human Plasma Stability % rem. @ 1 hr” value is reported as 93%. For the same molecule, the “HLM % rem. @ 1 hr” value in data set [4] was 88%.
Turning to `CN1CCN(c2ccc(C(=O)N[C@@H](CC(C)(C)C)C(=O)N3CC[C@H]4OCC(=O)[C@H]43)cc2)CC1` [Example 3, N—((S)-4,4-dimethyl-1-oxo-1-((3aS,6aR)-3-oxo-dihydro-2H-furo[3,2-b]pyrrol-4(5H,6H,6aH)-yl)pentan-2-yl)-4-(4-methylpiperazin-1-yl)benzamide], the Ki in data set [1] worked out at 4 nM. Also, the inhibition at 1 µM amounted to 79% in the data set on human osteoclasts [2] and 75% in the data set on rat osteoclasts. Moreover, the “Human Plasma Stability % rem. @ 1 hr” value in data set [3] is 95%. The “HLM % rem. @ 1 hr” value in data set [4] was 96%. In addition, the logD in data set [5] came out at 0.87.
Turning to `CCCN1CCN(c2ccc(C(=O)N[C@@H](CC(C)(C)C)C(=O)N3CC[C@H]4OCC(=O)[C@H]43)cc2)CC1` [Example 4, N—((S)-4,4-dimethyl-1-oxo-1-((3aS,6aR)-3-oxo-dihydro-2H-furo[3,2-b]pyrrol-4(5H,6H,6aH)-yl)pentan-2-yl)-4-(4-propylpiperazin-1-yl)benzamide], in data set [1], the Ki was determined as 12 nM. The results for the inhibition at 1 µM in the data set on human osteoclasts [2] and with rat osteoclasts were 75% and 72%, respectively. For the same molecule, the “Human Plasma Stability % rem. @ 1 hr” value in data set [3] is given as 92%. In data set [4], the “HLM % rem. @ 1 hr” value was determined as 82%. The same molecule had a logD in data set [5] of 1.87.
Take `COCCN1CCN(c2ccc(C(=O)N[C@@H](CC(C)(C)C)C(=O)N3CC[C@H]4OCC(=O)[C@H]43)cc2)CC1` [Example 5, N—((S)-4,4-dimethyl-1-oxo-1-((3aS,6aR)-3-oxo-dihydro-2H-furo[3,2-b]pyrrol-4(5H,6H,6aH)-yl)pentan-2-yl)-4-(4-(2-methoxyethyl)piperazin-1-yl)benzamide]: the Ki in data set [1] was 14 nM. The inhibition at 1 µM amounted to 72% in the data set with human osteoclasts [2] and 79% in the data set with rat osteoclasts. Moreover, the “Human Plasma Stability % rem. @ 1 hr” value in data set [3] amounted to 90%. Also, in data set [4], the “HLM % rem. @ 1 hr” value is 92%. In data set [5], this molecule gave a logD of 1.51.
Consider `CN1CCN(c2ccc(C(=O)N[C@H](C(=O)N3CC[C@H]4OCC(=O)[C@H]43)C(C)(C)C)cc2)CC1` [Example 8, N—((S)-3,3-dimethyl-1-oxo-1-((3aS,6aR)-3-oxo-dihydro-2H-furo[3,2-b]pyrrol-4(5H,6H,6aH)-yl)butan-2-yl)-4-(4-methylpiperazin-1-yl)benzamide], for which the Ki in data set [1] was determined as 6 nM. In addition, the inhibition at 1 µM with human osteoclasts [2] was 82%; in the data set with rat osteoclasts it was 20%. For the same molecule, the “Human Plasma Stability % rem. @ 1 hr” value in data set [3] turned out to be 93%. Moreover, the “HLM % rem. @ 1 hr” value in data set [4] was 89%. Moreover, the logD in data set [5] came out at 0.81.
`CC(C)C[C@H](NC(=O)c1ccc(C(C)(C)C)cc1)C(=O)N1CC[C@H]2OCC(=O)[C@H]21` [Prior art compound 23, reference compound]: the “Human Plasma Stability % rem. @ 1 hr” value in data set [3] came out at 75%. In data set [4], the “HLM % rem. @ 1 hr” value is reported as 70%. The “Cell-based % Inh. @ 1 μM Human (Lit.)” value in the data set on human osteoclasts [6] is “Lit. 60%”.

The values above are taken from US8053437B2, “Furo[3. 2-B] pyrrol derivatives” (Amura Therapeutics Limited, priority 2006, dated 2011).
